How the values were obtained:
[1] = Determination of pH of aspirin samples (USP <791>); type: physicochemical; conditions: 1861.9 mg sample in 5.0 mL USP water, stirred 15 minutes
Protocol: Determination of the pH of a solution of a formulation disclosed herein may be accomplished by methods known in the art, e.g., as described herein and by standard protocols, e.g., by protocols described in the United States Pharmacopoeia, Chapter <791>.
The pH values of aspirin API and batch nos. F22006-001, F22006-004, F22006-002, F22006-003, and F22006-005 were determined using standard protocols as described in the United States Pharmacopoeia, Chapter <791>. […] The pH of the mixture was measured using a Mettler Toledo pH meter.

[2] = Henderson-Hasselbalch calculation of ionized to non-ionized aspirin at saliva pH
From the text: In its conjugate base/ionized form, aspirin is unable to efficiently cross the mucous membranes in the oral cavity to enter the blood stream, rendering oral mucosal (e.g., sublingual and/or buccal) delivery of ionized aspirin inefficient. The pH of saliva in the oral cavity ranges between 6.2 to 7.6 (Dawood, […]. Saliva and Oral Health. Int. J. Adv. Res. Biol. Sci. 2018, 5, 1-45) depending on the individual, with an average pH of 6.7. The Henderson-Hasselbalch equation, represented by Equation 2 below, provides the ratio of conjugate base to acid at a given pH of an acid having a given pKa. […] Exemplary calculations are provided below. Using the lower saliva pH limit of 6.2 in equation 1: Using the upper saliva pH limit of 7.6 in equation 1: […]

## CC(=O)Oc1ccccc1C(=O)O [Aspirin, 2-acetoxybenzoic acid]
[1]
  pH: 2.62
[2]; average saliva pH value of 6.7, pKa […]
  ionized aspirin molecules for every one molecule of non-ionized aspirin: 1584
[2]; lower saliva pH limit of 6.2, pKa […]
  ionized aspirin molecules for every one molecule of non-ionized aspirin: 501
[2]; upper saliva pH limit of 7.6, pKa […]
  ionized aspirin molecules for every one molecule of non-ionized aspirin: 12589
